What was measured:
P-gp [1] = target: T1, P-gp (Homo sapiens, UniProt P08183); assay: Rhodamine-123 uptake test on LoVo/DOX cells (flow cytometry); format: cell-based; settings: compound 3 µM
T1 construct: doxorubicin resistant K562/DOX cell line overexpresses almost exclusively the transporter membrane protein P-gp; endogenous in cells; host or cells: K562/DOX (doxorubicin-selected human erythroleukemia cells)
Experimental: The selected compounds were preliminary studied at 3, 10 and 30 µM concentrations by the MTT (3-(4,5-dimethylthiazolyl-2)-2,5-diphenyltetrazolium bromide) assay to evaluate their intrinsic cytotoxicity on LoVo/DOX cell line.
(§1) An aliquot of cells (control) was incubated with the fluorochrome in the absence of inhibitors.
(§2) At the end of the uptake, cells were sedimented, washed twice in ice-cold PBS, placed in PBS on ice, and kept in the dark until flow cytometric analysis.
(§3) The histograms were generated by program GraphPad Prism 5 (GraphPad Prism software, Inc., San Diego, CA, USA); the data were obtained from the ratio between the average fluorescence intensity of the samples preincubated with the compounds under study and subsequently exposed to rhodamine, and the fluorescence of the sample exposed only to the rhodamine.

P-gp [2] = target: T1, P-gp; assay: Rhodamine-123 uptake test on K562/DOX cells (flow cytometry); format: cell-based
Experimental: The results were expressed as the FR (fluorescence ratio), which is the ratio between the average fluorescence intensity of rhodamine in the presence and in the absence of modulators. Value 1 was attributed to the average fluorescence intensity of the samples exposed only to rhodamine.
as §1, §2, §3

hCA II = target: T2, hCA II (Homo sapiens, UniProt P00918); assay: Stopped-flow CO2 hydrase assay, hCA II; format: biochemical; settings: stopped flow, mean from 3 assays
T2 construct: made in house
Experimental: (§4) An SX.18MV-R Applied Photophysics (Oxford, UK) stopped-flow instrument was used to assay the catalytic/inhibition of various CA isozymes. […] Saturated CO2 solutions in water at 25 °C were used as a substrate. Stock solutions of inhibitors were prepared at a concentration of 10 μM (in DMSO-water 1:1, v/v) and dilutions up to 0.01 nM done with the assay buffer mentioned above. […] Inhibitor and enzyme solutions were preincubated together for 10 min at room temperature prior to the assay, in order to allow for the formation of the E–I complex. […] The inhibition constants were obtained by non-linear least-squares methods using the Cheng–Prusoff equation, as reported earlier, and represent the mean from at least three different determinations. All CA isozymes used here were recombinant proteins obtained as reported earlier by our group.

hCA IX = target: T3, hCA IX (Homo sapiens, UniProt Q16790); assay: Stopped-flow CO2 hydrase assay, hCA IX; format: biochemical; settings: stopped flow, mean from 3 assays
T3 construct: made in house
Experimental: as §4

hCA I = target: T4, hCA I (Homo sapiens, UniProt P00915); assay: Stopped-flow CO2 hydrase assay, hCA I; format: biochemical; settings: mean from 3 assays
T4 construct: made in house
T4 sequence (P00915 whole entry): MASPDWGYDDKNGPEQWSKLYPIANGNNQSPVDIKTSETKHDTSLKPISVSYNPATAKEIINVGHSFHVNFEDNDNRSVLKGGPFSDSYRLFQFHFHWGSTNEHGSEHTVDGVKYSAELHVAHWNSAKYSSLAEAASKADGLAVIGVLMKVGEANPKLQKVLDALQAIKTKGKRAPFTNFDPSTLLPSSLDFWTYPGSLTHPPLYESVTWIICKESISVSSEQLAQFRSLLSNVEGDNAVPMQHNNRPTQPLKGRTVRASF
Experimental: as §4

hCA XII = target: T5, hCA XII (Homo sapiens, UniProt O43570); assay: Stopped-flow CO2 hydrase assay, hCA XII; format: biochemical; settings: stopped flow, mean from 3 assays
T5 construct: made in house
T5 sequence (O43570 25-354): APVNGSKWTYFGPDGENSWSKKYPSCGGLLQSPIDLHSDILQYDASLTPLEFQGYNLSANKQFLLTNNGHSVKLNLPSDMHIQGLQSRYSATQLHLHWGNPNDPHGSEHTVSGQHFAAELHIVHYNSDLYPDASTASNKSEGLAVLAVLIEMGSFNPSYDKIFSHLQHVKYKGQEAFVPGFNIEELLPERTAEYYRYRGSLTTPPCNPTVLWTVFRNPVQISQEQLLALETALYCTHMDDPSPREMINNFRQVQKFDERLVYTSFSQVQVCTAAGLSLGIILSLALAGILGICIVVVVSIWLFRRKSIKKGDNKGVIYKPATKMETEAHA
Experimental: as §4

K562/DOX cells [3] = assay: Enhancement of doxorubicin cytotoxicity on K562/DOX cells (MTT); format: cell-based, human; settings: 72 h
Experimental: (§5) To evaluate the enhancement of doxorubicin toxicity in the presence of the tested compounds, the cells, in exponential growth phase, were seeded at 10^4 cells/well and solutions of either compounds or doxorubicin, or a solution of doxorubicin in combination with the compounds, were added to the wells repeated in quadruplicate. […] The MTT working solution was then added and plates were further incubated for 3 h. Following incubation cells and formazan crystals were inspected microscopically. The supernatant was then carefully removed by slow aspiration and the formazan crystals were dissolved in […] of acidified isopropanol solution. The absorbance of the solution was then read on an automated plate reader at a wavelength of 570 nm. The increase in the toxicity of doxorubicin was quantified by the ratio between the growth of the cell sample treated with IC20 of doxorubicin and that of the cell sample treated with IC20 of doxorubicin in combination with the various concentrations of the tested compounds.

LoVo/DOX cells [4] = assay: Enhancement of doxorubicin cytotoxicity on LoVo/DOX cells (MTT); format: cell-based, human; settings: 72 h
Experimental: as §5

LoVo cells = assay: Doxorubicin IC50 on parental LoVo cells (MTT); settings: Homo sapiens, 72 h, read-out: doxorubicin IC50
Experimental: (§6) For the LoVo/DOX cell line, the doxorubicin growth inhibition was determined by the MTT assay and the IC50 and IC20 values were determined. Approximately 10^4 cells/well were plated onto 96-well plates and allowed to attach for 24 h before treatment with a range of drug concentrations from 3 × 10^−11 to 3 × 10^−5 M for 3 days; each concentration was repeated four times. At the end of the incubation the cells were processed according to the MTT protocol [43] and the optical density of the chromogenic product was measured at 570 nm. IC50 and IC20 values were determined graphically from relative survival curves obtained by GraphPad Prism 5 software (GraphPad, San Diego, CA, USA).
(§7) The resistance index to doxorubicin of the two resistant cell lines was obtained from the ratio between the doxorubicin IC50 (µM) values on the resistant and parental lines.

K562/DOX cells [5] = test system: K562/DOX cells; set-up: method as in PMID 30947123; settings: cited from earlier work
LoVo/DOX cells [6] = assay: Doxorubicin IC50 and IC20 evaluation on LoVo/DOX cells (MTT)
Experimental: as §6, §7

T1 sequence (P08183 whole entry): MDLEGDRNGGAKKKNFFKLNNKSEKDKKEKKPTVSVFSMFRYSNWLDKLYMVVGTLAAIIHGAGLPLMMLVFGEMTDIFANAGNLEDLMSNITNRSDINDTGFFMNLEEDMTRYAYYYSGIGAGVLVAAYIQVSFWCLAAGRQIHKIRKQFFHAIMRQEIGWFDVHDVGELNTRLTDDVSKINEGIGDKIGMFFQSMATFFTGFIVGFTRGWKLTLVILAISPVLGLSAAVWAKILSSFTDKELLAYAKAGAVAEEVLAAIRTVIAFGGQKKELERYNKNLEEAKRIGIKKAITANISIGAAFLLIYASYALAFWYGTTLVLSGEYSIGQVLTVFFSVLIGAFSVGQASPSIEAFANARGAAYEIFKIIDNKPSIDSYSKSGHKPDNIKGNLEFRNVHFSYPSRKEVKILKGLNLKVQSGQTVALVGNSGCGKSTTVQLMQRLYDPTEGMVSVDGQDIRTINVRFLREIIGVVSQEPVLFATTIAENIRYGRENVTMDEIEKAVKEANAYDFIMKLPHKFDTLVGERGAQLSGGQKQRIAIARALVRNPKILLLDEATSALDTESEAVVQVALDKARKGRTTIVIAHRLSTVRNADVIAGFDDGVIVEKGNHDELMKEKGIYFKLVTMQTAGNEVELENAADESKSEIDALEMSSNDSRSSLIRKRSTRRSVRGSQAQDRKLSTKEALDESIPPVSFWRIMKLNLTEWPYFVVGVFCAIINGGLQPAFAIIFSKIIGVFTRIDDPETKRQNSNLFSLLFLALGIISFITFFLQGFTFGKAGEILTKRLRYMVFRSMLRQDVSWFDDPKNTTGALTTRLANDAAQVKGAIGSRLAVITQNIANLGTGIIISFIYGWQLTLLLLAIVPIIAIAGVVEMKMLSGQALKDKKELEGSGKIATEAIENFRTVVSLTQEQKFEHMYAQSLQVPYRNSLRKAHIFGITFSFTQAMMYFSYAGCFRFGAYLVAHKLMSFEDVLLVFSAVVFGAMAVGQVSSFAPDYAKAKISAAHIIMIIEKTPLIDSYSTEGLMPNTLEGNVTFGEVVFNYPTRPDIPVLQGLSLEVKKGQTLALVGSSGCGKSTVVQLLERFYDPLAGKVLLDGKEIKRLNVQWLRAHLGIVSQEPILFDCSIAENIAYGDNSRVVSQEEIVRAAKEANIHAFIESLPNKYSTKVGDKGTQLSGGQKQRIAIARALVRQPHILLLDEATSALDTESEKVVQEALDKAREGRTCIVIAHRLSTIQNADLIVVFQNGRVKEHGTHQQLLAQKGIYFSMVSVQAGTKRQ

FR (fluorescence ratio, Rhd 123 uptake) (P-gp [1]) | FR (fluorescence ratio, Rhd 123 uptake with/without modulator) (P-gp [2]; compound 3 µM) | FR (fluorescence ratio, Rhd 123 uptake with/without modulator) (P-gp [2]; compound 30 µM) | Ki (hCA II) [µM] | Ki (hCA IX) [µM] | Ki (hCA I) [µM] | Ki (hCA XII) [µM] | IC50 (LoVo/DOX cells [6]; Homo sapiens, LoVo, 72 h, read-out: doxorubicin IC50) [µM] | Compound | Cell Growth (%) (K562/DOX cells [3]; doxorubicin 0.5 µM (IC20) + compound 3 µM) | Cell Growth (%) (K562/DOX cells [3]; doxorubicin 0.5 µM (IC20) + compound 10 µM) | Cell Growth (%) (LoVo/DOX cells [4]; doxorubicin 0.3 µM (IC20) + compound 3 µM) | Cell Growth (%) (LoVo/DOX cells [4]; doxorubicin 0.3 µM (IC20) + compound 10 µM) | IC50 (LoVo cells) [µM] | IC50 (K562/DOX cells [5]; K562/DOX cells ref 38, read-out: doxorubicin IC50) [µM] | IC20 (K562/DOX cells [5]; K562/DOX cells, extrapolated from earlier cytotoxicity curves ref 38, read-out: doxorubicin IC20) [µM] | resistance index to doxorubicin (IC50 resistant/parental) (K562/DOX cells [5]; K562/DOX vs K562 ref 38) | IC20 (LoVo/DOX cells [6]; Homo sapiens, LoVo, read-out: doxorubicin IC20) [µM] | resistance index to doxorubicin (IC50 resistant/parental) (LoVo/DOX cells [6]; LoVo/DOX vs LoVo) | activity at 0.5 µM (K562/DOX cells [3]; Homo sapiens, doxorubicin 0.5 µM alone, read-out: Cell Growth (%)) [%] | activity at 0.3 µM (LoVo/DOX cells [4]; Homo sapiens, doxorubicin 0.3 µM alone, read-out: Cell Growth (%)) [%]
negligible | 2.10 | 4.45 | 0.0812 | 0.241 | 0.339 | 0.0234 | – | CN(CCCCCOC(=O)c1ccc(S(N)(=O)=O)cc1)CCCOC(=O)c1c2ccccc2cc2ccccc12 [Compound 26, 3-(methyl(5-((4-sulfamoylbenzoyl)oxy)pentyl)amino)propyl anthracene-9-carboxylate] | 77.9 ± 6.1 | 74.0 ± 2.6 | 82.0 ± 2.0 | 58.2 ± 5.9 | – | – | – | – | – | – | – | –
– | – | – | – | – | – | – | 0.85 ± 0.084 | COc1cccc2c1C(=O)c1c(O)c3c(c(O)c1C2=O)C[C@@](O)(C(=O)CO)C[C@@H]3O[C@H]1C[C@H](N)[C@H](O)[C@H](C)O1 [doxo, doxorubicin] | – | – | – | – | 0.063 ± 0.0066 | 2.47 ± 0.25 | 0.5 | 73 | 0.3 | 13.5 | 80 ± 3.6 | 80 ± 2.5

From publication PMC7181201, “Dual P-Glycoprotein and CA XII Inhibitors: A New Strategy to Reverse the P-gp Mediated Multidrug Resistance (MDR) in Cancer Cells” (Molecules, 2020)
